Laboratory results from patent US20070191372A1, “Dna-targeted benzotriazine 1,4-dioxides and their use in cancer therapy” (Auckland Uniservices Limited, priority 2002, published 2007).
pIC50: −log10 of the molar value. Counter-ions that a name gives are not always drawn.

What was measured:
murine SCCVII = assay: Clonogenic assay under aerobic and hypoxic conditions, SCCVII; format: cell-based; conditions: SCVIII cells; for IC90: Mus musculus, 1 h, hypoxic, 60 min drug exposure, SN (hypoxic), read-out: C10 hypoxic; for HCR: ratio of C10 under aerobic and hypoxic conditions; for RHT: ratio of hypoxic TPZ C10 to hypoxic compound C10
Experimental: Evaluation of the Cytotoxicity of Compounds by Clonogenic Assay Under Aerobic and Hypoxic Conditions.
Compounds representative of the invention were evaluated under both aerobic and hypoxic conditions in clonogenic assays, using three cell lines: human colon carcinoma HT-29, murine SCCVII, and human lung adenocarcinoma LXFL. Clonogenic survival was determined using aerobic and hypoxic SCCVII cell suspensions. Drug exposures were performed using continuously stirred and gassed single cell suspensions (10^6 cells/mL) at 37° C., equilibrated with 5% CO2 in air or N2 for 60 min before drug addition. After a 60 min drug exposure cells were washed by centrifugation and plated to determine colony formation Cytotoxicity was measured as the concentration required to reduce plating efficiency to 10% of controls (C10). The hypoxic cytotoxicity ratio (HCR) was determined as the ratio of the C10 values under aerobic and hypoxic conditions. The relative hypoxic toxicity (RHT) was determined as the ratio of hypoxic TPZ C10 to hypoxic BTO C10. Abbreviations used in Table 2 are:
C10=The concentration of drug (in micromolar) to reduce viable cell numbers to 10% of those of control cell cultures grown under the same conditions but not exposed to drug
(§1) RHT=Relative hypoxic toxicity is defined as the ratio of concentrations of Tirapazamine/test compound to give equal cell killing under hypoxic conditions.
HCR=Hypoxic cytotoxicity ratio is defined as the ratio of drug concentrations under aerobic and hypoxic condition to produce equal cell survival (10%) determined by clonogenic assay

[1] = system: human colon carcinoma HT-29; assay: Proliferation assay (IC50) under aerobic and hypoxic conditions, HT-29; format: cell-based; conditions: for RHT: HT-29, ratio Tirapazamine/test compound under hypoxic conditions; for HCR: HT-29, ratio of IC50 under aerobic and hypoxic conditions; for pIC50: Homo sapiens, HT-29, hypoxic (anoxia <0.001% O2), 4 h exposure
Experimental: (§2) Evaluation of the Cytotoxicity of Compounds by Proliferation Assay (IC50) Under Aerobic and Hypoxic Conditions.
(§3) Compounds representative of the invention were evaluated under both aerobic and hypoxic conditions in a proliferation assay (IC50), using two cell lines: human colon carcinoma HT-29, and human cervical carcinoma SiHa.
(§4) Drug exposures were performed in 96-well plates (Nunc) using either a 37° C. humidified incubator (20% O2, 5% CO2) or in the incubator compartment (37° C.) of an anaerobic chamber (Shell Lab) where palladium catalyst scrubbed gas (90% N2, 5% H2, 5% CO2) ensures severe anoxia (<0.001% O2). For each experiment, compounds were simultaneously tested under both oxic and hypoxic conditions against the HT-29 cell line and included TPZ as an independent internal control at the front and back of the assay (n=2). Final data was pooled from a series of seven independent experiments and is calculated using inter-experimental means. In all cases, 8-methyl-5-nitroquinoline was used as a second internal control to confirm that strict hypoxia was present during the experiment. (Siim et al. Br. J. Cancer 1994, 70, 596-603). Cell cultures were grown in αMEM (Gibco) containing 5% heat inactivated FCS and maintained in exponential growth phase. For each individual experiment an appropriate number of cells were seeded (HT-29=1000) into wells in αMEM÷10% FCS+10 mM added glucose+100 μM 2′-deoxycytidine (2′dCyd), and allowed to attach for 3 h. High glucose (final concentration 17 mM) and the presence of 2′-dCyd minimize hypoxia-induced cell cycle arrest. Replicates were then exposed to BTOs, using 2-fold serial dilutions in triplicate, for a further 4 h. Subsequently cells were washed free of compound using complete media (without glucose/2′-dCyd) and allowed to grow for 5 (oxic) or 6 (anoxic) days. Plates were stained as described previously (Wilson et al., J. Med. Chem. 1989, 32, 31-38) and IC50 values determined.
(§5) IC50=The concentration of drug (in micromolar) to reduce viable cell numbers to 50% of those of control cell cultures grown under the same conditions but not exposed to drug
as §1
(§6) HCR=Hypoxic cytotoxicity ratio is defined as the ratio of drug concentrations under aerobic and hypoxic condition to produce equal cell survival (50%) determined by proliferation assay

[2] = system: human cervical carcinoma SiHa; assay: Proliferation assay (IC50) under aerobic and hypoxic conditions, SiHa; format: cell-based; conditions: for pIC50: Homo sapiens, hypoxic, 4 h exposure; for RHT: ratio Tirapazamine/test compound under hypoxic conditions; for HCR: ratio of IC50 under aerobic and hypoxic conditions
Experimental: as §2, §3, §4, §5, §1, §6

Row | Compound | melting point | RHT [1] | HCR [1] | pIC50 [1] | other results
1 | O=C(NCCCCCCNc1n[n+]([O-])c2ccccc2[n+]1[O-])c1ccnc2ccccc12 [Compound 13, N-{6-[(1,4-Dioxido-1,2,4-benzotriazin-3-yl)amino]hexyl}-4-quinolinecarboxamide] | 196 to 198 °C | – | – | – | –
2 | Cc1ccc2c(c1)[n+]([O-])nc(NCCCN(C)CCCNC(=O)c1cccc3nc4ccccc4nc13)[n+]2[O-] [Compound 76, N-[3-(Methyl{3-[(7-methyl-1,4-dioxido-1,2,4-benzotriazin-3-yl)amino]propyl}amino)propyl]-1-phenazinecarboxamide] | 118 to 122 °C | – | – | – | –
3 | O=C(NCCOCCNc1n[n+]([O-])c2ccccc2[n+]1[O-])c1cccc2ccc(-c3ccncc3)nc12 [Compound 26, N-(2-{2-[(1,4-Dioxido-1,2,4-benzotriazin-3-yl)amino]ethoxy}ethyl)-2-(4-pyridinyl)-8-quinolinecarboxamide] | 128 to 130 °C | – | – | – | –
4 | CN(CCNC(=O)c1cccc2cc3ccccc3nc12)CCNc1n[n+]([O-])c2ccccc2[n+]1[O-] [Compound 95, N-{2-[{2-[(1,4-Dioxido-1,2,4-benzotriazin-3-yl)amino]ethyl}(methyl)amino]ethyl}-4-acridinecarboxamide] | – | 71 | 74 | 6.74 | IC90 (murine SCCVII): 1000 nM; HCR (murine SCCVII): 400; RHT (murine SCCVII): 11; pIC50 [2]: 7.12; RHT [2]: 48; HCR [2]: 89
5 | CN(C)CCCC(=O)c1cc(NC(=O)c2cc(NC(=O)CCCNc3n[n+]([O-])c4ccccc4[n+]3[O-])cn2C)cn1C [Compound 112, N-{5-[4-(Dimethylamino)butanoyl]-1-methyl-1H-pyrrol-3-yl}-4-({4-[(1,4-dioxido-1,2,4-benzotriazin-3-yl)amino]butanoyl}amino)-1-methyl-1H-pyrrole-2-carboxamide] | 140 to 145 °C | – | – | – | –
6 | CN(CCCNC(=O)c1cccc2nc3ccccc3nc12)CCCc1n[n+]([O-])c2ccccc2[n+]1[O-] [Compound 63, N-{3-[[3-(1,4-Dioxido-1,2,4-benzotriazin-3-yl)propyl](methyl)amino]propyl}-1-phenazinecarboxamide] | – | 167 | 129 | 7.47 | –
7 | CN(CCCNC(=O)c1cccc2nc3ccccc3nc12)CCCc1n[n+]([O-])c2ccccc2[n+]1[O-] (as salt: hydrochloride) [Compound 63, N-{3-[[3-(1,4-Dioxido-1,2,4-benzotriazin-3-yl)propyl](methyl)amino]propyl}-1-phenazinecarboxamide] | 173 °C | – | – | – | –
8 | O=C(NCCCCCCNc1n[n+]([O-])c2ccccc2[n+]1[O-])c1cccc2cc3ccccc3nc12 [Compound 12, N-{6-[(1,4-Dioxido-1,2,4-benzotriazin-3-yl)amino]hexyl}-4-acridinecarboxamide] | 196 to 198 °C | – | – | – | –
9 | Cc1cccc2cc3cccc(C(=O)NCCCN(C)CCCNc4n[n+]([O-])c5ccccc5[n+]4[O-])c3nc12 [Compound 44, N-{3-[{3-[(1,4-dioxido-1,2,4-benzotriazin-3-yl)amino]propyl}(methyl)amino]-propyl}-5-methyl-4-acridinecarboxamide] | – | 25.7 | 72.7 | 6.65 | IC90 (murine SCCVII): 160 nM; HCR (murine SCCVII): >187; RHT (murine SCCVII): 56.3
10 | COCCOc1ccc2c(c1)[n+]([O-])nc(NCCCN(C)CCCNC(=O)c1cccc3cc4ccccc4nc13)[n+]2[O-] [Compound 55, N-{3-[(3-{[7-(2-Methoxyethoxy)-1,4-dioxido-1,2,4-benzotriazin-3-yl]amino}propyl)(methyl)amino]propyl}-4-acridinecarboxamide] | – | 47 | 97 | 6.91 | IC90 (murine SCCVII): 1100 nM; HCR (murine SCCVII): 63.6; RHT (murine SCCVII): 10; pIC50 [2]: 7.30; RHT [2]: 72; HCR [2]: 124
11 | O=C(NCCCNc1n[n+]([O-])c2ccccc2[n+]1[O-])c1cccc2cc3ccccc3nc12 (as salt: hydrochloride) [Compound 17, N-{3-[(1,4-Dioxido-1,2,4-benzotriazin-3-yl)amino]propyl}-4-acridinecarboxamide] | 192 °C | – | – | – | –
12 | Cc1ccc2c(c1)[n+]([O-])nc(NCCCNCCCNC(=O)c1cccc3nc4cccc(C)c4nc13)[n+]2[O-] [Compound 77, 9-Methyl-N-[3-({3-[(7-methyl-1,4-dioxido-1,2,4-benzotriazin-3-yl)amino]propyl}amino)propyl]-1-phenazinecarboxamide] | 119 to 122 °C | – | – | – | –
13 | Cc1cccc2nc3cccc(C(=O)NCCCNCCCNc4n[n+]([O-])c5ccccc5[n+]4[O-])c3nc12.Cl | 183 to 186 °C | – | – | – | –
14 | Cc1ccc2c(c1)[n+]([O-])c(NCCCN(C)CCCNC(=O)c1cccc3nc4ccccc4nc13)n[n+]2[O-] [Compound 87, N-[3-(Methyl{3-[(6-methyl-1,4-dioxido-1,2,4-benzotriazin-3-yl)amino]propyl}amino)propyl]-1-phenazinecarboxamide] | 111 to 114 °C | – | – | – | –
15 | CN(CCCNC(=O)c1cccc2cc3ccccc3nc12)CCCc1n[n+]([O-])c2ccccc2[n+]1[O-] [Compound 62, N-{3-[[3-(1,4-dioxido-1,2,4-benzotriazin-3-yl)propyl](methyl)amino]propyl}-4-acridinecarboxamide] | – | 274 | 157 | 7.68 | –
16 | O=C(NCCNCCNc1n[n+]([O-])c2ccccc2[n+]1[O-])c1cccc2cc3ccccc3nc12 [Compound 37, N-[2-({2-[(1,4-Dioxido-1,2,4-benzotriazin-3-yl)amino]ethyl}amino)ethyl]-4-acridinecarboxamide] | – | 74 | 160 | 7.10 | –
17 | Cc1ccc2c(c1)[n+]([O-])c(NCCCN(C)CCCNC(=O)c1cccc3cc4ccccc4nc13)n[n+]2[O-] [Compound 85, N-[3-(Methyl{3-[(6-methyl-1,4-dioxido-1,2,4-benzotriazin-3-yl)amino]propyl}amino)propyl]-4-acridinecarboxamide] | – | 26 | 134 | 6.65 | –
18 | CN(CCCNC(=O)c1cccc2cccnc12)CCCNc1n[n+]([O-])c2ccccc2[n+]1[O-] [Compound 42, N-{3-[{3-[(1,4-Dioxido-1,2,4-benzotriazin-3-yl)amino]propyl}(methyl)amino]propyl}-8-quinolinecarboxamide] | – | 11.2 | 86.2 | 6.29 | –
19 | CN(CCCNC(=O)c1cccc2ccc(-c3ccncc3)nc12)CCCNc1n[n+]([O-])c2ccccc2[n+]1[O-] [Compound 43, N-{3-[{3-[(1,4-dioxido-1,2,4-benzotriazin-3-yl)amino]propyl}(methyl)amino]-propyl}-2-(4-pyridyl)-8-quinolinecarboxamide] | – | 51.4 | 119 | 6.95 | IC90 (murine SCCVII): 1400 nM; HCR (murine SCCVII): 10; RHT (murine SCCVII): 5.7
20 | O=C(NCCCNc1n[n+]([O-])c2ccccc2[n+]1[O-])c1cccc2cc3ccccc3nc12 [Compound 17, N-{3-[(1,4-Dioxido-1,2,4-benzotriazin-3-yl)amino]propyl}-4-acridinecarboxamide] | – | – | – | – | IC90 (murine SCCVII): 4800 nM; HCR (murine SCCVII): >6.3; RHT (murine SCCVII): 1.94
